Active and inactive are the calls of the source. No cut-off for these calls is given here.
How the values were obtained:
Format in all cases: cell-based
[1] = molecular target: von Hippel-Lindau disease tumor suppressor/Casein kinase I isoform alpha (Homo sapiens) (UniProt P48729+P40337); assay: PROTAC activity at VHL/CK1 alpha in HEK293 cells assessed as induction of degradation of CK1 alpha at 10 uM measured after 6 hrs by Western blot analysis relative to control
[2] = molecular target: T1, von Hippel-Lindau disease tumor suppressor/Casein kinase I isoform epsilon (Homo sapiens) (UniProt P49674+P40337); assay: PROTAC activity at VHL/CK1 epsilon in human U87 cells assessed as induction of degradation of CK1 epsilon by measuring maximum efficacy at 1 uM measured after 6 hrs relative to control
T1 sequence (P40337 whole entry, looked up, canonical isoform): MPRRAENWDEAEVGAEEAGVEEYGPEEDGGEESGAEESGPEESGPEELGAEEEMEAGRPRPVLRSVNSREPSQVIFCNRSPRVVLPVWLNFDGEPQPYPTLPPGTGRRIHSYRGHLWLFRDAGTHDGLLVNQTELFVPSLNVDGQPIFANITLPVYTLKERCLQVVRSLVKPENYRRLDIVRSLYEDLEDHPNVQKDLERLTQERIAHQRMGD
T1 sequence (P49674 whole entry, looked up, canonical isoform): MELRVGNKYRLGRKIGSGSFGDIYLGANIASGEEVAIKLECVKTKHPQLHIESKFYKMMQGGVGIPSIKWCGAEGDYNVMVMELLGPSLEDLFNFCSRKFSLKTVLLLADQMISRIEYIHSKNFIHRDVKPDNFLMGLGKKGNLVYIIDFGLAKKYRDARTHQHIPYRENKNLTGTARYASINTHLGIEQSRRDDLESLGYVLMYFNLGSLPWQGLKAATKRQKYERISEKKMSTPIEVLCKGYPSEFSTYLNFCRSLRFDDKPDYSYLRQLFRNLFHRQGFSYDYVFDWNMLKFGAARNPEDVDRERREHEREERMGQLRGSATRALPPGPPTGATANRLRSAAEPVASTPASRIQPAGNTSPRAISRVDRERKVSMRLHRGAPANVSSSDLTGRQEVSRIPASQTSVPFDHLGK

[3] = molecular target: T1, von Hippel-Lindau disease tumor suppressor/Casein kinase I isoform epsilon (Homo sapiens); assay: PROTAC activity at VHL/CK1 epsilon in human U87 cells assessed as induction of degradation of CK1 epsilon at 1 uM measured after 6 hrs
[4] = molecular target: von Hippel-Lindau disease tumor suppressor/Casein kinase I isoform delta (Homo sapiens, UniProt P48730+P40337); assay: PROTAC activity at VHL/Hibit-fused CK1 delta in human MV4-11 cells assessed as degradation of CK1-delta incubated for 6 hrs by Nano-Glo HiBiT assay
von Hippel-Lindau disease tumor suppressor/Casein kinase I isoform delta, sequence (P48730 whole entry, the tested form may be a part, canonical isoform): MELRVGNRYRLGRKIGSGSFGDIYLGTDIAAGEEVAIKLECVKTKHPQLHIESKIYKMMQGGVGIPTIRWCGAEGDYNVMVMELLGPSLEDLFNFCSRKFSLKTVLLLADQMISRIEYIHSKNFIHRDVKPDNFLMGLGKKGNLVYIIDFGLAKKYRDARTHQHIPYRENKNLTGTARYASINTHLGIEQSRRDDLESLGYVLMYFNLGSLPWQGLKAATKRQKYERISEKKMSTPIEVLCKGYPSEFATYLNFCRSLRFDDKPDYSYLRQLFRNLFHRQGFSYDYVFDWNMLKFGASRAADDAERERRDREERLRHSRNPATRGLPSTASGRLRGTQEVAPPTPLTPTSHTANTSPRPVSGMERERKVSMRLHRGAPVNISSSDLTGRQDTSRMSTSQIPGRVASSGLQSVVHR
von Hippel-Lindau disease tumor suppressor/Casein kinase I isoform delta, sequence (P40337 whole entry, the tested form may be a part, canonical isoform): as the sequence (P40337 whole entry, looked up, canonical isoform) above

von Hippel-Lindau disease tumor suppressor/Casein kinase I isoform alpha (Homo sapiens), sequence (P40337 whole entry, looked up, canonical isoform): as above
von Hippel-Lindau disease tumor suppressor/Casein kinase I isoform alpha (Homo sapiens), sequence (P48729 whole entry, looked up, canonical isoform): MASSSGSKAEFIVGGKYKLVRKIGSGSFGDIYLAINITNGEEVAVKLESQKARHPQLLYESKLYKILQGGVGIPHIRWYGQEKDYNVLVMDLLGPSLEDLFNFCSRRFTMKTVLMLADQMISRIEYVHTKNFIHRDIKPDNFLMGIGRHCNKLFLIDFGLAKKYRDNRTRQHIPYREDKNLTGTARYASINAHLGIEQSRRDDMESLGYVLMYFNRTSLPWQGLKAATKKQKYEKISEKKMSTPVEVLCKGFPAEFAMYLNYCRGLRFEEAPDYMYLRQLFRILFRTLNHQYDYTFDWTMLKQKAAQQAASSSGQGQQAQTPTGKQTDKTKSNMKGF

Emax [2]: > 50% | Activity [3]: Active | DC50 [4]: 550 nM
SMILES: Cc1ncsc1-c1ccc(CNC(=O)[C@H]2C[C@H](O)CN2C(=O)[C@H](NC(=O)CCCCCCC(=O)N2CCC(F)(Cn3cnc(-c4ccc(F)cn4)c3-c3ccnc4[nH]ccc34)CC2)C(C)(C)C)cc1
Activity [1]: Not active; Compound Showed Weak Degradation

Reference: ChEMBL document CHEMBL6087472, “Development and Discovery of a Selective Degrader of Casein Kinases 1 δ/ε” (J Med Chem, 2025)
